We go through nine compounds from US6043024A, “Use of one-dimensional nuclear magnetic resonance to identify ligands to target biomolecules” (Abbott Laboratories, priority 1997, dated 2000).

The target in experiment [1] is T1, FKBP (Homo sapiens, UniProt P62942). Briefly: KD estimated from absence of observed chemical shift changes in 15N-HSQC spectra of FKBP. The format is binding. The note with it: compounds 2-9; estimated from absence of chemical shift changes in 15N-HSQC spectra at compound concentrations of 1.0 mM. The method, then: (§1) Recombinant human FK binding protein (FKBP) was prepared as described in Logan et al., J. Mol. Biol., 236: 637-648 (1994).
from the absence of observed chemical shift changes in ^15 N--HSQC
spectra of FKBP at compound concentrations of 1.0 mM, as described in the […]

Experiment [2] addresses T1, FKBP. The note with it: cited from earlier work.
Experiment [3] has as its target T1, FKBP. Briefly: Screening for binding using diffusion-filtered one-dimensional proton NMR spectroscopy. Conditions: FKBP 50 μM, gradients 3 and 48 Gauss/cm, diffusion delay 300 ms, pH 6.5, 300K. The method, then:
For all experiments, low and high gradient strengths correspond to 3 and 48 Gauss/cm, respectively. The high gradient strength was sufficient to eliminate the residual HDO signal in the sample. A diffusion delay time of 300 ms was used, the concentration of all chemical compounds was 100 μM, the concentration of FKBP was 50 μM, and the buffer was 50 mM PO4, 100 mM NaCl, pH 6.5 (95% D2 O).
For all experiments, low and high gradient strengths correspond to 3 and 48 Gauss/cm. respectively. The high gradient strength was sufficient to eliminate the residual HDO signal in the sample. A diffusion delay time of 300 ms was used, the concentration of all chemical compounds was 100 μM, the concentration of FKBP was 50 μM, and the buffer was […], 100 mM NaCl, pH 6.5 (95% D2 O).
as §1
The pulse sequence employed for exploiting the changes in diffusion rates of potential ligands in the presence of the target molecule that described by S. J. Gibbs and C. S. Johnson, Jr. J. Main. Reson. […]
(§2) All NMR spectra were recorded at 300K on a Bruker AMX500 NMR spectrometer. All spectra were recorded with 256 scans and a proton sweep width of 8333.3 Hz and a proton 90 degree pulse length of 7 μs. […] The NMR data were processed and analyzed on Silicon Graphics computers.

The target of experiment [4] is T1, FKBP. Put plainly: Screening for binding using T2-filtered one-dimensional proton NMR spectroscopy. Conditions: FKBP 50 μM, spin-lock 200 ms, pH 6.5, 300K. The method, then:
For all experiments, the T2 -filter spin-lock time was 200 ms with a spin-echo delay of 1 ms, the concentration of compound 1 was 100 μM, the concentration of FKBP was 50 μM, and the buffer was 50 mM PO4, 100 mM NaCl, pH 6.5 (95% D2 O).
For all experiments, the T2 -filter spin-lock time was 200 ms with a spin-echo delay of 1 ms, the concentration of all chemical compounds was 100 μM, the concentration of FKBP was 50 μM, and the buffer was 50 mM PO4, 100 mM NaCl, pH 6.5 (95% D2 O).
Recombinant human FK binding protein (FKBP) was prepared as described in Logan et al., J. Mol. Biol., 236: 637-648 (1994). […]
In FIG. 1A, a CPMG sequence with a spin-lock time of 200 ms is applied to the compound in the absence of FKBP. […] These differences can be detected either by direct inspection, or by a spectral differencing method in which the spectrum of […] (after the spin-lock, FIG. 1C) is subtracted from the spectrum of the compound in the presence of FKBP (also after the spin-lock, FIG. 1B), resulting in the spectrum shown in FIG. 1D. […]
as §2

[5] abbreviates: mixture of compounds 1-9, each 100 μM.

Like-named read-outs stand apart in the source and are kept apart here. A value given as a limit tells only on which side of the number the result lay.

T1 sequence (P62942 whole entry): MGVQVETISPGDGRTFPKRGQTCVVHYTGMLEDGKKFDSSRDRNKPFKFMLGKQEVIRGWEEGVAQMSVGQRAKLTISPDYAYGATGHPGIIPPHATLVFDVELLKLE

For the compound `O=c1oc2ccccc2c(O)c1-c1ccccc1` [Compound 9], the Kd in experiment [1] was above 10 mM.
For the compound `O=C1CCc2ccccc2O1` [Compound 2], the Kd in experiment [1] was above 10 mM.
Still for that read-out and setting: the result for `COc1cccc(O)c1` [Compound 3] reads above 10 mM; that for `OC(c1ccccc1)c1ccccc1` [Compound 4], above 10 mM.
On to `c1ccc(-c2ncc[nH]2)cc1` [Compound 1], for which the Kd in experiment [2] (compound 1, obtained from S. Shuker, et al., Science 274:1531-1534 (1996), read-out: KD) is 0.2 mM; in experiment [2] (read-out: affinity (binds to FKBP)), 0.2 mM. Moreover, the “difference spectrum (FIG. 5E), diffusion-filtered, mixture of compounds 1-9” value in experiment [3] (setting [5]) is given as “positive resonances at the chemical shifts for compound 1 in the absence of FKBP”. Besides, the “ligand binding detected using diffusion filters (FIGS. 4A-4E)” value in experiment [3] (single compound 100 μM) was “demonstrated for FKBP binding to compound 1”. For the same compound, the “difference spectrum (FIG. 2E), T2-filtered, mixture of compounds 1-9” value in experiment [4] (setting [5]) is reported as “positive peaks which correspond to the positions of the reonances of compound 1 in the absence of FKBP”. In experiment [4] (single compound, T2-filter, compound 100 μM), the “ligand signals after the spin lock time in the presence of FKBP” value is “significantly reduced”.
Consider `COc1ccc(-c2ccc(C(=O)O)cc2)cc1` [Compound 7], for which the Kd in experiment [1] is above 10 mM.
Same read-out and setting: the result for `Oc1cccc(O)c1` [Compound 5] reads above 10 mM; that for `O=C(O)c1ccc(-c2cccs2)s1` [Compound 8], above 10 mM; that for `Nc1cc(-c2ccco2)n[nH]1` [Compound 6], above 10 mM.
